Experimental findings from US12637435B2, “Nitrogen-containing heterocyclic compound or salt thereof, use thereof, and intermediate thereof” (FUJIFILM Corporation, priority 2020, dated 2026) are described below.

One assay addresses T1, recombinant human DHODH (Homo sapiens, UniProt Q02127).
T1 construct: DHODH, 31-395aa, Human, His tag, E. coli, ATGP1615; His tag; purchased ATGen Co. Ltd. ATGP1615; host or cells: E. coli
In words: DHODH enzyme reaction inhibition test (DCIP-coupled assay). The assay is classed as biochemical. To be noted: recombinant human DHODH 0.175 μg/mL, DCIP absorbance 600 nm, 50 minutes, pH 8.0; read-out: Enzyme reaction inhibitory effect (IC50). The method, then: The DHODH enzyme assay was carried out with reference to “Benjamin Bader, Wolfgang Knecht, Markus Fries, and Monika Loffler, Expression, Purification, and Characterization of Histidine-Tagged Rat and Human Flavoenzyme Dihydroorotate Dehydrogenase, Protein Expression and Purification, 1998, 13, 414-422.”
The DHODH activity was evaluated using an enzyme assay system that is coupled with an assay in which a blue coloring agent 2,6-dichlorophenolindophenol (DCIP, available from MP Biomedicals, LLC, MP150118) is quenched. Purified recombinant human DHODH (DHODH, 31-395aa, Human, His tag, E. coli, ATGP1615) was purchased from ATGen Co. Ltd. The enzyme assay was carried out in a 384-well plate using a buffer solution containing 100 mmol/L Hepes (available from Dojindo Laboratories, 342-01375), 400 mmol/L NaCl (available from FUJIFILM Wako Pure Chemical Corporation, 191-01665), 10% Glycerol (available from FUJIFILM Wako Pure Chemical Corporation, 075-00616), 0.05% Triton X-100 (available from Sigma-Aldrich Co., LLC, T8787-100ML), 0.2 mmol/L Ubiquinone-10 (available from FUJIFILM Wako Pure Chemical Corporation, 216-00761), 0.1 mmol/L DHO (L-dihydroorotic acid, available from Sigma-Aldrich Co., LLC, D7128), 0.5% DMSO (dimethylsulfoxide, available from FUJIFILM Wako Pure Chemical Corporation, 047-29353), 0.175 μg/mL DHODH, and 0.12 mmol/L DCIP and having a pH adjusted to 8.0 by adding 5 mol/L potassium hydroxide (available from FUJIFILM Wako Pure Chemical Corporation, 168-21815). A test compound with a predetermined concentration was added using Biomek NX (available from Beckman Coulter Inc.), and the enzyme reaction was started by adding the substrate. The enzyme activity was assessed by measuring the decrease in DCIP absorbance (600 nm) for 50 minutes using an EnVision plate-reading spectrophotometer (available from PerkinElmer, Inc.).
The enzyme reaction inhibition rate at each test compound concentration was determined, and the 50% enzyme reaction inhibition concentration [IC50 (nmol/L)] was calculated using XLfit. Enzyme reaction inhibition rate (%)=(amount of luminescence in test compound-added well)/(amount of luminescence in DMSO-added well)×100
The abbreviations in the table have the following meanings. • A: IC50 value<10 nmol/L • B: 10 nmol/L≤IC50 value<100 nmol/L • C: 100 nmol/L≤IC50 value

The test system of assay [1] is human myeloid leukemia cell line HL60. In words: Cell growth test, HL60 (CellTiter-Glo). The assay is classed as cell-based. To be noted: HL-60, 72 h, HL60 cells, 3 days, CellTiter-Glo luminescence, read-out: Cell growth inhibitory effect (GI50). The method, then:
The cell growth test was carried out using the human myeloid leukemia cell line HL60 (available from ATCC, CRL-240). As a culture medium of HL60 cells, RPMI 1640 (available from FUJIFILM Wako Pure Chemical Corporation, 189-02025) supplemented with 10% fetal bovine serum (available from Thermo Fisher Scientific, Inc., 10437-028), and 1% penicillin-streptomycin (10,000 U/mL, available from Thermo Fisher Scientific, Inc., 15140-122) was used. HL60 cells were seeded on a 384-well plate (available from Corning Inc., 4588) at a cell density of 1×10^3 cells/20 μL/well. After culturing overnight, 5 μL of the test compound having a predetermined concentration was added, and 3 days later, 25 μL of CellTiter-Glo (registered trademark) Luminescent Cell Viability Assay (available from Promega Corporation, G7573) was added, and then the amount of luminescence was measured using an EnVision plate reader (available from PerkinElmer, Inc.). Since the amount of luminescence is proportional to the intracellular concentration of adenosine triphosphate (ATP), the amount of luminescence was used as an indicator of the number of viable cells. The growth inhibitory concentration for each test compound concentration was calculated by the following expression.
The growth inhibition rate at each test compound concentration was determined, and the 50% growth inhibitory concentration [GI50 (nmol/L)] was calculated using XLfit. Growth inhibition rate (%)=(amount of luminescence in test compound-added well)/(amount of luminescence in DMSO-added well)×100
The abbreviations in the table have the following meanings. • A: GI50 value<100 nmol/L • B: 100 nmol/L≤GI50 value<1,000 nmol/L • C: 1,000 nmol/L≤GI50 value
Background: Cellular ATP, detected with luciferase, serves as a proxy for viable cell number.

T1 sequence (Q02127 31-395): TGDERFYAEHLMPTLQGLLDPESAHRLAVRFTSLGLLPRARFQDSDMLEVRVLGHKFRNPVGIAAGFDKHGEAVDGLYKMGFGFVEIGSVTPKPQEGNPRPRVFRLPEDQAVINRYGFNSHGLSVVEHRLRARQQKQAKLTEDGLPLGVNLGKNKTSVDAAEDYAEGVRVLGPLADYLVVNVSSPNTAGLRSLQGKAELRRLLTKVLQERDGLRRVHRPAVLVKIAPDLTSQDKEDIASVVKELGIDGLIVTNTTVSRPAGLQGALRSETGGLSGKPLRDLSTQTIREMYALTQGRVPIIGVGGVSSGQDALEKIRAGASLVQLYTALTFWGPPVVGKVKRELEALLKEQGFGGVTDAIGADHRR

What is called IC50 is the concentration that inhibits the measured activity by half. By GI50 is commonly meant the concentration giving 50% growth inhibition. As for `N#Cc1ccc(-c2cc(F)cc(Nc3ncc(C4CC4)nc3C(=O)NS(N)(=O)=O)c2OC(F)F)cc1` [Example 3-54], at recombinant human DHODH, the IC50 was 0.01 to 0.1 µM. In addition, in assay [1], the concentration for 50% growth inhibition (GI50) is 0.1 to 1 µM.

Regarding `N#Cc1ccc(-c2cccc(Nc3ncc(C4CC4)cc3C(=O)O)c2OCC(F)(F)F)cc1` [Example 2-7], the half-maximal inhibitory concentration (IC50) on recombinant human DHODH was less than 0.01 µM. The GI50 in assay [1] is less than 0.1 µM.

As for `CN(C)S(=O)(=O)NC(=O)c1nc(C2CC2)cnc1Nc1cccc(C2=CCOCC2)c1OCC(F)(F)F` [Example 3-11], at recombinant human DHODH, the IC50 is not below 0.1 µM. Further, in assay [1], the GI50 is not below 1 µM.

`C[C@H](Oc1c(Nc2nnc(C3CC3)cc2C(=O)NS(C)(=O)=O)cccc1C1CCOCC1)C(F)(F)F` [Example 3-63]: the IC50 at recombinant human DHODH is 0.01 to 0.1 µM. Besides, in assay [1], the GI50 was not below 1 µM.

On to `O=C(NS(=O)(=O)C1CC1)c1nc(C2CC2)cnc1Nc1cccc(C2=CCOCC2)c1OCC(F)(F)F` [Example 3-21], for which the half-inhibitory concentration (IC50) on recombinant human DHODH lay in the range of 0.01 to 0.1 µM. Further, the GI50 in assay [1] was not below 1 µM.

As to `O=C(O)c1cc(C2CC2)ccc1Nc1cncc(C2=CCOCC2)c1OCC(F)(F)F` [Example 2-1], at recombinant human DHODH, the IC50 is less than 0.01 µM. In addition, in assay [1], the GI50 lay in the range of 0.1 to 1 µM.

As to `N#Cc1cccc(-c2cccc(Nc3ncc(C4CC4)nc3C(=O)O)c2OCC(F)(F)F)c1` [Example 2-9], the IC50 on recombinant human DHODH is less than 0.01 µM. The GI50 in assay [1] is less than 0.1 µM.

Take `N#Cc1ccc(-c2cc(F)cc(Nc3ncc(C4CC4)nc3C(=O)O)c2OC(F)F)cc1` [Example 2-12]: the IC50 on recombinant human DHODH fell in the range of 0.01 to 0.1 µM. Moreover, in assay [1], the GI50 fell in the range of 0.1 to 1 µM.

As for `CS(=O)(=O)NC(=O)c1cc(C2CC2)ncc1Nc1cccc(C2=CCOCC2)c1OCC(F)(F)F` [Example 3-61], the IC50 at recombinant human DHODH is less than 0.01 µM. In addition, the GI50 in assay [1] fell in the range of 0.1 to 1 µM.

For `NS(=O)(=O)NC(=O)c1nc(C2CC2)cnc1Nc1cccc(C2=CCOCC2)c1OCC(F)(F)F` [Example 3-10], the IC50 at recombinant human DHODH was less than 0.01 µM. The concentration for 50% growth inhibition (GI50) in assay [1] was less than 0.1 µM.

With `CNNC(=O)c1nc(C2CC2)cnc1Nc1cccc(C2=CCOCC2)c1OCC(F)(F)F` [Example 1-12, 6-cyclopropyl-3-((3-(3,6-dihydro-2H-pyran-4-yl)-2-(2,2,2-trifluoroethoxy)phenyl)amino)-N′-methylpyrazine-2-carbohydrazide], the IC50 at recombinant human DHODH fell in the range of 0.01 to 0.1 µM. Besides, the GI50 in assay [1] fell in the range of 0.1 to 1 µM.

`Cc1ccc(-c2cccc(Nc3ncc(C4CC4)nc3C(=O)O)c2OCC(F)(F)F)c(C)n1` [Example 1-4, 6-cyclopropyl-3-((3-(2,6-dimethylpyridin-3-yl)-2-(2,2,2-trifluoroethoxy)phenyl)amino)pyrazine-2-carboxylic acid]: the IC50 at recombinant human DHODH fell in the range of 0.01 to 0.1 µM. Besides, the 50% growth inhibitory concentration (GI50) in assay [1] is 0.1 to 1 µM.

`CCOc1c(C2=CCOCC2)ccc(F)c1Nc1ncc(C2CC2)cc1C(=O)NS(C)(=O)=O` [Example 3-59]: the IC50 at recombinant human DHODH was 0.01 to 0.1 µM. Further, the GI50 in assay [1] was not below 1 µM.

`CC(C)c1cnc(Nc2cccc(C3=CCOCC3)c2OCC(F)(F)F)c(C(=O)NS(C)(=O)=O)n1` [Example 3-65]: the IC50 on recombinant human DHODH is less than 0.01 µM. For the same molecule, in assay [1], the GI50 is 0.1 to 1 µM.

As to `N#CNC(=O)c1nc(C2CC2)cnc1Nc1cccc(C2CCOCC2)c1OCC(F)(F)F` [Example 3-29], the half-inhibitory concentration (IC50) on recombinant human DHODH is less than 0.01 µM. Moreover, the 50% growth inhibitory concentration (GI50) in assay [1] was less than 0.1 µM.

For `CS(=O)(=O)NC(=O)c1nc(C2CC2)cnc1Nc1cc(F)cc(-c2ccc(C#N)cc2)c1OC(F)F` [Example 3-55], the IC50 on recombinant human DHODH was in the range of 0.01 to 0.1 µM. Also, in assay [1], the GI50 was 0.1 to 1 µM.

For `CCc1c(Nc2ncc(C3CC3)cc2C(=O)O)cccc1C1CCOCC1` [Example 2-10], the IC50 at recombinant human DHODH was less than 0.01 µM. Moreover, in assay [1], the 50% growth inhibitory concentration (GI50) is less than 0.1 µM.

Consider `O=c1[nH]nc(-c2nc(C3CC3)cnc2Nc2cccc(C3=CCOCC3)c2OCC(F)(F)F)o1` [Example 1-9, 5-(6-cyclopropyl-3-((3-(3,6-dihydro-2H-pyran-4-yl)-2-(2,2,2-trifluoroethoxy)phenyl)amino)pyrazin-2-yl)-1,3,4-oxadiazol-2(3H)-one], for which the IC50 at recombinant human DHODH fell in the range of 0.01 to 0.1 µM. Moreover, the GI50 in assay [1] fell in the range of 0.1 to 1 µM.

With `O=C(O)c1cc(C2CC2)cnc1Nc1cccc(C2=CCOCC2)c1OCC(F)(F)F` [Example 2-5], the IC50 on recombinant human DHODH was less than 0.01 µM. Further, the GI50 in assay [1] is less than 0.1 µM.
